According to US20040254161A1, “New benzothiazine and benzothiadiazine compounds” (priority 2003, published 2004):

System: not given
Test: not given
Details: not given

melting point [°C] | SMILES
104 to 113 | O=S1(=O)NC2CCCN2c2ccc(Oc3cccc(CNS(=O)(=O)C(F)(F)F)c3)cc21 (stereo not drawn) [Example 9, N-{3-[(5,5-Dioxido-2,3,3a,4-tetrahydro-1H-pyrrolo[2,1-c][1,2,4]-benzothiadiazin-7-yl)oxy]benzyl}(trifluoro)methanesulphonamide]
58 | CC(=O)NCc1cccc(Oc2ccc3c(c2)S(=O)(=O)NC2CCCN32)c1 (stereo not drawn) [Example 3, N-{3-[(5,5-Dioxido-2,3,3a,4-tetrahydro-1H-pyrrolo[2,1-c][1,2,4]-benzothiadiazin-7-yl)oxy]benzyl}acetamide]
112 to 118 | CC(C)S(=O)(=O)NCc1cccc(Oc2ccc3c(c2)S(=O)(=O)NC2CCCN32)c1 (stereo not drawn) [Example 18, N-{3-[(5,5-Dioxido-2,3,3a,4-tetrahydro-1H-pyrrolo[2,1-c][1,2,4]-benzothiadiazin-7-yl)oxy]benzyl}propane-2-sulphonamide]

System: AMPA receptors
Test: Excitatory currents induced by AMPA in Xenopus oocytes (two-electrode voltage-clamp)
Assay type: cell-based
Details: Xenopus oocytes injected with rat cerebral cortex poly(A+) mRNA; AMPA 10 μM; 20-24° C., OR2 medium
Experimental: Study of the Excitatory Currents Induced by AMPA in Xenopus oocytes
mRNA's are prepared from cerebral cortex of male Wistar rats by the guanidinium thiocyanate/phenol/chloroform method. The poly (A^+) mRNA's are isolated by chromatography on oligo-dT cellulose and injected at a level of 50 ng per oocyte. The oocytes are incubated for 2 to 3 days at 18° C. to permit expression of the receptors and are then stored at 8-10° C.
Electrophysiological recording is carried out in a Plexiglass® chamber at 20-24° C. in OR2 medium (J. Exp. Zool., 1973, 184, 321-334) by the “voltage-clamp” method using two electrodes, with a third electrode placed in the bath serving as reference.
All the compounds are applied via the incubation medium and the electric current is measured at the end of the application period. AMPA is used in a concentration of 10 μM. For each compound studied, the concentration that doubles (EC2X) or quintuples (EC5X) the intensity of the current induced by AMPA alone (5 to 50 nA) is determined.

SMILES | EC2X (concentration that doubles the intensity of the current induced by AMPA alone) [µM] | EC5X (concentration that quintuples the intensity of the current induced by AMPA alone) [µM]
CS(=O)(=O)NCc1ccc(Oc2ccc3c(c2)S(=O)(=O)NC2CCCN32)cc1 (stereo not drawn) [Example 21, N-{4-[(5,5-Dioxido-2,3,3a,4-tetrahydro-1H-pyrrolo[2,1-c][1,2,4]-benzothiadiazin-7-yl)oxy]benzyl}methanesulphonamide] | 0.1 | 0.56
Cl.NCc1cccc(Oc2ccc3c(c2)S(=O)(=O)NC2CCCN32)c1 (stereo not drawn) [Example 1, {3-[(5,5-Dioxido-2,3,3a,4-tetrahydro-1H-pyrrolo[2,1-c][1,2,4]-benzothiadiazin-7-yl)oxy]phenyl}methanamine hydrochloride] | 3.5 | 9.2
CS(=O)(=O)NCc1cccc(Oc2ccc3c(c2)S(=O)(=O)NC2CCCN32)c1 (stereo not drawn) [Example 2, N-{3-[(5,5-Dioxido-2,3,3a,4-tetrahydro-1H-pyrrolo[2,1-c][1,2,4]-benzothiadiazin-7-yl)oxy]benzyl}methanesulphonamide] | 0.35 | 2.6
